# Literature values, collected in US20250049963A1, “GLYCOSYLATED DENDRIMERS FOR TARGETED INTRACELLULAR DELIVERY” (The Johns Hopkins University, priority 2021, published 2025).
# Biological target: T1, GLUT2 (Homo sapiens, UniProt P11168)
# T1 sequence (P11168 1-524): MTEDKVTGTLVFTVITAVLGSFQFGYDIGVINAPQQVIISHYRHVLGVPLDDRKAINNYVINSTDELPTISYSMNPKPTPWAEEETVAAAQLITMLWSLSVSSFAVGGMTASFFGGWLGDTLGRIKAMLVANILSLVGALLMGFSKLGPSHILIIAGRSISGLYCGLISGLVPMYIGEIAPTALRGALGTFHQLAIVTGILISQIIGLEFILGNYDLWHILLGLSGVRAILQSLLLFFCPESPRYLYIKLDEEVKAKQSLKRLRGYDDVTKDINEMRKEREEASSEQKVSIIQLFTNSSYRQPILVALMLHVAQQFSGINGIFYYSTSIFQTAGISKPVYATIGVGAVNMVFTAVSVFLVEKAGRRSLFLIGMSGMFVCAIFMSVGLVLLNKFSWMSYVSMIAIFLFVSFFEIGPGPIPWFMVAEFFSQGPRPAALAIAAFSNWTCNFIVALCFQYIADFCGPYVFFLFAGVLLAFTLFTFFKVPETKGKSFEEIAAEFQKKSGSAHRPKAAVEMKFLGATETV
# Conditions: cited from earlier work
structure (smiles),measurement,value
"NC1C(O)[C@H](O)C(CO)O[C@@H]1O (stereo partly shown) [GlcN, glucosamine]",affinity of GLUT2 for GlcN relative to glucose,~20 fold
